Measured values taken from patent US10857180B2, “Pharmaceutical composition for improving health, cure abnormalities and degenerative disease, achieve anti-aging effect of therapy and therapeutic effect on mammals and method thereof” (priority 2014, dated 2020).
Converted amounts (≈) assume the structure as drawn. Read-outs that look alike come from different tables or passages of the source.

Legend:
[1] = test system: A-549 cell line; test: Scratch assay, A-549 cells
Experimental: (§2) The cells of A-549, A-431, NRK, HaCaT, MM-4, normal fibroblasts (derived from the Bank of Cell Lines from human and animal tissues, R. E. Kavetsky Institute of Experimental Pathology, Oncology and Radiobiology, National Academy of Sciences of Ukraine) were cultured in complete culture medium RPMI 1640/DMEM (PAA, Austria) (depending on the cell type) supplemented with 10% fetal calf serum (PAA, Austria) and incubated in 5% CO2 humidified atmosphere at 37° C. The culture medium was replaced in 2 to 3 days and the cells were passaged in 4 to 5 days.
(§3) Analysis of the influence of the components under study on the cell migration rate was performed using the scratch assay method. Cells (5×10^4/well) were seeded into the wells of a 12-well plate in 2 repeats in RPMI-1640/DMEM culture medium supplemented with 10% PBS, 40 mcg/ml of gentamicin and incubated in 5% CO2 humidified atmosphere at 37° C. for 24 hours.
(§4) The plate was incubated in a CO2 incubator for additional 48 hours. After the cells formed a dense monolayer it was damaged (by making a “scratch”) and the growth medium was replaced to remove cell debris and smooth the edges of the “scratch.” The rate of cell migration was analyzed using an inverted microscope and by photographing cells in the area of injury. The migration activity of cells was fixed at several time points (depending on the cell line analyzed). The microphotomicrographs were analyzed and the cell incubation time needed to restore the monolayer was determined for all experimental groups.

[2] = test system: normal rat kidney cells (NRK cell line); test: Effect on normal rat kidney cells versus Doxorubicin; details: for live cells: 16 mcg/ml
Description: An immortalized cell line is a stable, capable of unlimited proliferation cell line that consists of cells with […] in culture.

[3] = test system: human epidermoid carcinoma cells (A-431 cell line); test: Scratch assay, A-431 cells
Experimental: as §2
(§5) Analysis of the influence of the components under study on the cell migration rate was performed using the scratch assay method. […]
(§6) The plate was incubated in a CO2 incubator for additional 48 hours. After the cells formed a dense monolayer it was damaged (by making a “scratch”) and the growth medium was replaced to remove cell debris and smooth the edges of the “scratch.” The rate of cell migration was analyzed using an inverted microscope and by photographing cells in the area of injury. The migration activity of cells was fixed at several time points (depending on the cell line analyzed). The microphotomicrographs were analyzed and the cell incubation time needed to restore the monolayer was determined for all experimental groups. […]

[4] = test system: renal cell carcinoma (PA) cells; test: Viability of PA tumor cells (trypan blue, crystal violet; live-dead); format: cell-based, rat; details: for IC50: Rattus norvegicus; for dose for 50% live, 50% dead: natural isotope distribution
Description: To make the analysis, the cell suspension, after it was exposed to the action of materials, in a volume of 20 mcl was mixed with 20 mcl of trypan blue solution and resuspended. The obtained solution was placed in a hemocytometer chamber for visual analysis and quantitative estimation of the cells. To make the quantitative estimation of the cells, they were separated from the substrate using Versene solution and counted by staining cells with trypan. A change in the color of a cell was indicative of the violation of intactness of the cell membrane, and the more pronounced was the coloration, the less viable the cell was. […] They are easily distinguishable from dark damaged cells and easily identified with ordinary light microscope.
Alluding to the above, staining the Cells with Crystal Violet and their Quantitative Analysis will be discussed. Utilization of this method of assessment in the experiment makes it possible to quantify cells classified according to the living-dead criterion. The method is based on statistical evaluation of cells able to adhere to the substrate (to the plastic plate), cells capable of further proliferation. The criterion of the evaluation is the degree of optical permeability of a well with the cell sediment for a luminous flux of a certain wavelength. Removal of the culture medium from the wells is also accompanied by removal of non-adhering and unstained cells from the substrate, and adhesion and staining of the residue left on the substrate provides a quantitative characteristic of the number of cells which are capable of further division and multiplication.
Alluding to the above, viable tumor cells capable of further proliferation were fixed to the plastic surface and stained blue (after they were exposed to the action of components with natural distribution of isotopes) using the dye powder dissolved in 70% methanol solution. After 10 minutes the dye was removed from the wells with a micropipette and the cells were thoroughly rinsed three times with clean running water. The cell sediment fixed by the dye was dissolved with ethanol followed by determination of its concentration (which is indicative of the number of viable cells) and fixed via multi-well spectrophotometer with an excitation wave 540 nm in length.
Analysis of the effect of all components on the renal cell carcinoma (PA) was conducted to determine the relationship between the amount of the preparation (concentration characteristics of the component) and the quantitative characteristics of the cells. Assessment of the effect of the components was carried out on 2 concentration models with 30 and 300 thousand original tumor cells. After the cells were cultured, cell suspensions were prepared in the plates with the culture medium and an effect of the preparations (in various concentrations) on the tumor cells was assessed. The experiment was started with the concentration of 10 mg of the active substance per 1 ml of the solvent (saline with 5% glucose).
After the action of components with natural isotope distribution on PA tumor cells (in all 9 concentration dilutions of the preparations), they were stained with trypan blue. Staining cells (after the effect of the components) in blue is indicative of the respiratory impairment of the cells, which allows of classifying them as non-viable tumor units. The part of the cells remained uncolored is characterized as viable with the ability for further proliferation. […] The assessment was performed on 14 plates with 300 thousand cells in each well by counting the number of viable cells in the Goryaev chamber. Quantitative analysis of the cells was performed visually every 10 hours of the experiment.

[5] = test system: human melanoma tumor cells (MM-4 cell line); test: Scratch assay, MM-4 cells; format: cell-based; details: Doxorubicin at 2 concentrations (0.1 and 0.01 mcg/ml)
Experimental: as §2, §5, §6

[6] = test system: stem cells derived from rat fibroblasts (RF); format: cell-based
[7] = test system: healthy human skin cells (HaCaT cell line); test: Scratch assay, HaCaT cells; format: cell-based; details: Doxorubicin 15 ng/ml and 5 ng/ml
Experimental: as §2, §5, §6

[8] = test system: normal rat kidney cells (NRK cell line); test: Scratch assay, NRK cells; format: cell-based; details: Doxorubicin 15 ng/ml; control 30 hours
Experimental: as §2, §3, §4

[9] = test system: renal cell carcinoma (PA) cells; test: Immunocytochemistry (H-Score) of PA cells; format: cell-based, rat
Experimental: When making the immunocytochemistry (ICC) assay, cells on microscope glasses (cytospin preparations) were fixed in the solution (methanol+acetone 1:1) for 2 hours at t 20° C. and incubated with 1% solution of bovine serum albumin (BSA) for 20 minutes. Then the monoclonal antibodies—CD44 (Diagnostic BioSystems), E-cadherin (ThermoScientific), N-cadherin (NeoMarker, BioLegend)—were applied for 60 minutes, after which the Poly Vue imaging system conjugated with peroxidase was used and the enzyme activity was detected using diaminobenzidine (ThermoScientific) as a substrate.
(§1) After the immunocytochemical reaction the preparations were washed with water and counterstained with hematoxylin-eosin (for 15-30 seconds). The results were analyzed by counting cells with expression (brown colored cells), using a light microscope and were assessed using the classical H-Score method: S=1×A+2×B+3×C, where S is the H-Score index giving a range of 0 (protein is not detected) to 300 (high-level expression in 100% of the cells); A is the percentage of weakly stained cells, B is the percentage of moderately stained cells and C is the percentage of strongly stained cells.

[10] = test system: normal rat kidney cells (NRK line); test: Immunocytochemistry of NRK cells; format: cell-based
Experimental: When making the immunocytochemistry (ICC) assay, cells on microscope glasses (cytospin preparations) were fixed in the solution (methanol+acetone 1:1) for 2 hours at t 20° C. and incubated with 1% solution of bovine serum albumin (BSA) for 20 minutes. Then the monoclonal antibodies-CD44 (Diagnostic BioSystems), E-cadherin (ThermoScientific), N-cadherin (NeoMarker, BioLegend), SLUG (GeneTex)—were applied for the time period specified by the manufacturer (30 to 60 minutes), after which the Poly Vue imaging system conjugated with peroxidase was used and the enzyme activity was detected using diaminobenzidine (ThermoScientific) as a substrate. After the immunocytochemical reaction the preparations were washed with water and counterstained with hematoxylin-eosin (for 15 to 30 seconds).
as §1, with “The” for “After the immunocytochemical reaction the preparations were washed with water and counterstained with hematoxylin-eosin (for 15-30 seconds). The”, “cells)” for “cells),”, “microscope,” for “microscope”, “staining” for “stained”

[11] = Zn sulfate 80 mcg/ml, trypan blue

**Q.** What does the source list for COc1cccc2c1C(=O)c1c(O)c3c(c(O)c1C2=O)C[C@@](O)(C(=O)CO)C[C@@H]3O[C@H]1C[C@H](N)[C@H](O)[C@H](C)O1 [Doxorubicin]?
**A.** time of restoration of the cell monolayer ([1]; Doxorubicin 0.02 mcg/ml): 60 h; time of restoration of the cell monolayer ([1]; Doxorubicin 0.2 mcg/ml): < 24 h; time of full restoration of the cell monolayer ([1]; Doxorubicin (2 mcg/ml per FIG. 113-116)): 24 h; effect on normal NRK cells ([2]; 3 to 0.01 mcg/ml): causing death of normal NRK cells; live cells ([2]; within 30 min): live cells are virtually absent; live cells ([2]; within 48 hours): live cells are absent; effect on normal NRK cells ([2]; 400 to 16 mcg/ml, 48 hours): complete death; time for the cell monolayer repair ([3]; Doxorubicin 0.02 mg/ml): 48 h; time to close up the cellular gap ([3]; Doxorubicin 0.1 mcg/ml, control 48 hours): 45 h; dead cells ([4]; Doxorubicin 0.64 mcg/ml): 39%; live cells ([4]; Doxorubicin 0.64 mcg/ml): 61%; dead cells ([4]; Doxorubicin 16 mcg/ml): 95%; live cells ([4]; Doxorubicin 16 mcg/ml): 5%; IC50 ([4]; crystal violet and trypan blue, read-out: concentration that kills 50% of the tumor cells): 3.2 µg/mL (≈ 5.89 µM); IC50 ([4]; read-out: dose that killed 50% of tumor cells): 3.2 µg/mL (≈ 5.89 µM); period of closing of the gap [5]: 48 h; time of restoration of the cell interval ([6]; Doxorubicin 15 ng/ml or 5 ng/ml): > 72 h; death of cells ([6]; Doxorubicin 15 ng/ml, within 96 hours after administration): 95%; cell migration rate [7]: inhibition of the cell migration rate; time of restoration of the damaged monolayer [8]: 72 h

**Q.** For [Cl-].[K+] [K], which “dose for 50% live, 50% dead” value [4] is on record?
**A.** The value was “about 2 mg”.

**Q.** How did the “dose for 50% kill, times as high as Doxorubicin EBEWE” value [4] turn out when O=S(=O)([O-])[O-].[Mg+2] [Mg] was run?
**A.** Its value is 1600 times.

**Q.** What about the “dose for 50% live, 50% dead” value [4] of the same compound?
**A.** Its value is “about 5 mg”.

**Q.** Which “dose for 50% kill, times as high as Doxorubicin EBEWE” value [4] does the source give for O=S(=O)([O-])[O-].[Zn+2] [Zn] here?
**A.** Its value is 100 times.

**Q.** What about the dead tumor cells ([4]; Zn sulfate 16 mcg/ml) of the same compound?
**A.** The dead tumor cells was 7%.

**Q.** What about the live tumor cells ([4]; Zn sulfate 16 mcg/ml) of the same compound?
**A.** The live tumor cells was 93%.

**Q.** And the dead tumor cells [4, 11]?
**A.** The dead tumor cells was 75%.

**Q.** And the live tumor cells [4, 11]?
**A.** The live tumor cells was 25%.

**Q.** What does the source list for O=S(=O)([O-])[O-].[64Zn+2] [^64Zn—Z2]?
**A.** CD44 marker positive cells, H-Score scale ([9]; 3.2 mcg/ml): 118 units; N-cadherin level ([9]; ^64Zn—Z2 3.2 and 0.128 mcg/ml): does not change; number of E-cadherin-positive cells ([9]; ^64Zn—Z2 3.2 and 0.128 mcg/ml): grows; E-cadherin-positive cells, H-Score scale ([9]; dose D1 0.128 mcg/ml): 300; phenotype of normal cells [10]: has not changed
